# Results from US20020115611A1, “Methods for screening GABA-modulatory compounds for specified pharmacological activities” (priority 1999, published 2002).
# pEC50: −log10 of the molar value. Like-named read-outs stand apart in the source and are kept apart here.
# Columns and labels:
# rats [1] = assay: Porsolt forced swim test; assay type: in vivo; conditions: rat, administered IV; antidepressant effect
# Description: (§1) A statistically significant effect in the spatial water maze, step-down passive avoidance, spontaneous locomotor activity, Porsolt swim test, or the elevated plus maze models is defined as p<0.05 using a valid parametric statistical test. Likewise, no statistically significant effect is defined in these models as p>0.05 using a valid parametric statistical test. No statistically significant effect for either of the seizure threshold models is defined as a decrease of less than 25% in the seizure threshold in the presence of a seizure inducing drug or a result that is not significant at the p<0.05 level.
# The effects measured in this model have been correlated to antidepressant efficacy for drugs. The paradigm of this model is that an effective antidepressant compound will cause a rat to make greater attempts to escape a water-filled cylinder than a rat given vehicle only.
# Animals used in this study were non-naive male Sprague Dawley Rats (SASCO, St. Louis) weighing between 280-350 grams. The test apparatus consists of 6 clear Plexiglas cylinders 40 cm high×19 cm wide. Cylinders are filled to 18 cm with 25° C. water. Each rat is placed in a cylinder for a 15 minute training session. Following either subchronic or acute dosing of either vehicle (0.5% methylcellulose) of compound, animals are brought back 24 hours later for a 5 minute test session. These test session is videotaped for later scoring.
# Subchronic dosing consists of administering drug three times in the 24-hour period between training and testing. The drug is administered 24 hrs., 5 hrs., and 1 hr. prior to the test session. Acute dosing consists of administering the drug once, 1 hour prior to the test session. Scoring is done using a time-sampling computer program written in Visual Basic and run in DOS. […] These sampling score are then converted into percentages of the test session.
# [2] = molecular target: α5β3γ2 GABAA subtype receptor (Homo sapiens, UniProt P18507+P31644); assay: cell-based; conditions: for Emax: read-out: oocyte electrophysiology maximum potentiation α5β3γ2
# Description: (§2) The in vitro efficacy and EC50 value of the test compound may be determined by measuring the chloride flux at the surface of a cell expressing the α,β, and γ subunits of the GABAA receptor in response to GABA by the two electrode voltage-clamp technique. While a variety of cells are suitable for use herein, the preferred cells used in this technique are Xenopus laevis oocytes that have been injected with non-polyadenylated CRNA coding for human derived α, βand γ GABAA subunits. The preferred form of the γ subunit is the normally expressed long form although an alternatively spliced form may be used.
# (§3) Assays are carried out as described previously in White and Gurley, 1995 and White, et al., 1995. Xenopus laevis oocytes are enzymatically isolated and injected with non-polyadenylated cRNA for human derived α, β and γ GABAA subunits, respectively. In more preferred embodiments cRNA for the α1β2γ2, α2β3γ2, α3β3γ2, and α5β3γ2 subunit combinations are injected. Only one of these subunit combinations is injected per cell. For each subunit combination, sufficient message is injected to result in current amplitudes of >10 nA when 1 μM GABA is applied. Electrophysiological recordings are carried out using the two electrode voltage-clamp technique at a membrane holding potential of −70 mV.
# (§4) Compounds are evaluated against a GABA concentration that evokes <10% (EC10) of the maximal evocable GABA current. Each oocyte is exposed to increasing concentrations of compound in order to evaluate a concentration/effect relationship.
# (§5) Specificity of a compound for the Ro15-1788 site is determined following completion of the concentration/effect curve. After washing the oocyte sufficiently to remove previously applied compound, the oocyte is exposed to GABA and 1 μM Ro15-1788, followed by exposure to GABA, 1 μM Ro15-1788, and compound. Percent change due to addition of compound is calculated as described above. Any percent change observed in the presence of Ro15-1788 is subtracted from the percent changes in current amplitude observed in the absence of 1 μM Ro15-1788. These net values are used for the calculation of average activity and EC50 values.
# (§6) To evaluate average activity and EC50 values, the concentration/effect data are averaged across cells and fit to the logistic equation. Average values are reported as mean±standard error.
# [3] = molecular target: α2β3γ2 GABAA subtype receptor (Homo sapiens, UniProt P18507+P47869); assay: cell-based; conditions: for pEC50 / oocyte electrophysiology maximum potentiation α2β3γ2: human subunits, GABA at EC10; for Emax: read-out: oocyte electrophysiology maximum potentiation α2β3γ2; for oocyte electrophysiology maximum potentiation α2β3γ2: negative = inverse agonism
# Description: as §2, §3, §4, §5, §6
# [4] = molecular target: α1β2γ2 GABAA subtype receptor (Homo sapiens, UniProt P14867+P18507); assay: cell-based; conditions: for pEC50 / oocyte electrophysiology maximum potentiation α1β2γ2: human subunits, GABA at EC10; for Emax: read-out: oocyte electrophysiology maximum potentiation α1β2γ2; for oocyte electrophysiology maximum potentiation α1β2γ2: negative = inverse agonism
# Description: as §2, §3, §4, §5, §6
# [5] = molecular target: α3β3γ2 GABAA subtype receptor (Homo sapiens, UniProt P18507+P34903); assay: cell-based; conditions: for pEC50 / oocyte electrophysiology maximum potentiation α3β3γ2: human subunits, GABA at EC10; for oocyte electrophysiology maximum potentiation α3β3γ2: negative = inverse agonism; for Emax: read-out: oocyte electrophysiology maximum potentiation α3β3γ2
# Description: as §2, §3, §4, §5, §6
# rats [6] = assay: spontaneous locomotor activity; assay type: in vivo; conditions: rat, IV; sedation as side effect (Tables V and IX); NS = no statistically significant effect over dose range
# Description: as §1
# Spontaneous locomotor activity can be measured to determine sedative effects of compounds. Locomotor activity is measured in eight computerized Digiscan-16 Animal Activity Monitors (Omnitech Electronics, Columbus, Ohio) equipped with 48 infrared photocell emitters and detectors. Each box is constructed of Plexiglas sides and floor. Horizontal activity is detected by a set of horizontal sensors on the front to back walls and a second group of sensors on the side to side walls located 5 cm above the cage floor. Vertical activity is detected by a third set of sensors on the side to side walls located 13.5 cm above the cage floor. The rats are tested in the presence of white noise (62 dB) and red light (60 watt). […]
# rats [7] = assay: step-down passive avoidance; assay type: in vivo; conditions: rat; cognitive impairment side effect (Table VII); NS = no statistically significant effect over dose range
# Description: as §1
# In step-down passive avoidance a rat is placed on a platform located in the center of an electrified grid floor that is contained within a large (45 cm×45 cm×50 cm) white translucent Plexiglas® enclosure. The natural inclination of the rat is to step off the platform and investigate its surroundings. […] Each time the animal steps off the platform it receives a mild foot shock of 2 mAmps×6 sec. Following each shock the animal is removed from the box, placed in its cage for a one minute inter-trial interval, and then returned to the platform. The latency to step down on each trial, the number of trials taken to reach criterion during training and the retention latency are collected.
# Testing is conducted approximately 24 hrs. after training. Drug-free animals are placed on the platform in the box in which they will have been trained and the latency to step down onto the grid floor is recorded for one trial as a measure of memory retention.
# [8] = Xenopus laevis oocytes, human subunits, GABA at EC10, read-out: oocyte electrophysiology EC50 α5β3γ2
# [9] = oocyte electrophysiology EC50 α5β3γ2, Xenopus laevis oocytes, human subunits, GABA at EC10
# [10] = Xenopus laevis oocytes, read-out: oocyte electrophysiology EC50 α2β3γ2
# [11] = oocyte electrophysiology EC50 α2β3γ2, Xenopus laevis oocytes
# [12] = Xenopus laevis oocytes, read-out: oocyte electrophysiology EC50 α1β2γ2
# [13] = oocyte electrophysiology EC50 α1β2γ2, Xenopus laevis oocytes
# [14] = Xenopus laevis oocytes, read-out: oocyte electrophysiology EC50 α3β3γ2
# [15] = oocyte electrophysiology EC50 α3β3γ2, Xenopus laevis oocytes
# Sequence of α3β3γ2 GABAA subtype receptor (P34903 29-492): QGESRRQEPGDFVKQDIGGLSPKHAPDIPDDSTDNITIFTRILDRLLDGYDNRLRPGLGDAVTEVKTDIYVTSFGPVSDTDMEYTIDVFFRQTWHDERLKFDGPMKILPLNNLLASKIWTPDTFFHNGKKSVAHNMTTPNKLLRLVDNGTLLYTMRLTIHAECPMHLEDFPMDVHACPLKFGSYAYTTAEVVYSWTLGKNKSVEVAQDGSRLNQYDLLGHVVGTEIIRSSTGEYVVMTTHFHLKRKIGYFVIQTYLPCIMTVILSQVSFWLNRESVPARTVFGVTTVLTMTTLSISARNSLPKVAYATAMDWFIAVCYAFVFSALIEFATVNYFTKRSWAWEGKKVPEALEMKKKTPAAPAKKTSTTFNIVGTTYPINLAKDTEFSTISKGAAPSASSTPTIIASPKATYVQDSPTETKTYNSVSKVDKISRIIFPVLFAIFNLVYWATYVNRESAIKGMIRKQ
# Sequence of α3β3γ2 GABAA subtype receptor (P28472 26-473 partner): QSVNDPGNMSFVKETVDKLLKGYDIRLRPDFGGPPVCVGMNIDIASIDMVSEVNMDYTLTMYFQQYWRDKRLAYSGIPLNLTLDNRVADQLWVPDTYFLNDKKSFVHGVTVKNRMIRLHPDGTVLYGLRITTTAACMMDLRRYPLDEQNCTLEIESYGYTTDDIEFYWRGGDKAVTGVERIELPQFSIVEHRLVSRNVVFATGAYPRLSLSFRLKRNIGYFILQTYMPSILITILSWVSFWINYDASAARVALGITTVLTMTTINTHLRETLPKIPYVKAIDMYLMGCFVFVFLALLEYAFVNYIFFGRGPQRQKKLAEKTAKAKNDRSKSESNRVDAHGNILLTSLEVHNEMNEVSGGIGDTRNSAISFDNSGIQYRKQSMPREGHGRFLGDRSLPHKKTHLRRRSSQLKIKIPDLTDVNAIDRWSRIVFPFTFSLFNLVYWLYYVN
# Sequence of α3β3γ2 GABAA subtype receptor (P18507 40-475): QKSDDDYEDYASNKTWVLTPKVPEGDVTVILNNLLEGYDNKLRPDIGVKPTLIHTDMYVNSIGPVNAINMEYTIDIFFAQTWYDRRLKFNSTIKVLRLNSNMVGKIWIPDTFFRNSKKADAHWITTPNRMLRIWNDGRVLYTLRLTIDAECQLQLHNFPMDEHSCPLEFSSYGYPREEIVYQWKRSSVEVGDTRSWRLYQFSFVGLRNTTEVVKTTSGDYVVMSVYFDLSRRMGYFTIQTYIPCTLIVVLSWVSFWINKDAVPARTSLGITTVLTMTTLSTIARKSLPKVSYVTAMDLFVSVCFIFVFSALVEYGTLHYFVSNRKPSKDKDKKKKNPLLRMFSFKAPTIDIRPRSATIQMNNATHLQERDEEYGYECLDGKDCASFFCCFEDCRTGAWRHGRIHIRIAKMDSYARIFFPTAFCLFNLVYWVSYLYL
# Sequence of α5β3γ2 GABAA subtype receptor (P31644 32-462): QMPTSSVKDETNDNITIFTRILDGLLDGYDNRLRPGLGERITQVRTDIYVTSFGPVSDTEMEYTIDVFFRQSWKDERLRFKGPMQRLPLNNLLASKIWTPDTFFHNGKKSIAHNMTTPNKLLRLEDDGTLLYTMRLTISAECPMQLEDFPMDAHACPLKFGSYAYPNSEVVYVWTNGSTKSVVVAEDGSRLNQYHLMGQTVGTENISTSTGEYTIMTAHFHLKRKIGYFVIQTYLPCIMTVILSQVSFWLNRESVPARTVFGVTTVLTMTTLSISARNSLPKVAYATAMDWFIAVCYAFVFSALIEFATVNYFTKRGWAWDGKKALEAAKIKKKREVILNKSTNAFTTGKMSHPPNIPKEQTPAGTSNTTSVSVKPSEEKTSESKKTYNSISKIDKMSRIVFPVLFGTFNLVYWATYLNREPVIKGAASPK
# Sequence of α5β3γ2 GABAA subtype receptor (P28472 26-473 partner): as the sequence (P28472 26-473 partner) above
# Sequence of α5β3γ2 GABAA subtype receptor (P18507 40-475): as the sequence (P18507 40-475) above
# Sequence of α2β3γ2 GABAA subtype receptor (P47869 29-451): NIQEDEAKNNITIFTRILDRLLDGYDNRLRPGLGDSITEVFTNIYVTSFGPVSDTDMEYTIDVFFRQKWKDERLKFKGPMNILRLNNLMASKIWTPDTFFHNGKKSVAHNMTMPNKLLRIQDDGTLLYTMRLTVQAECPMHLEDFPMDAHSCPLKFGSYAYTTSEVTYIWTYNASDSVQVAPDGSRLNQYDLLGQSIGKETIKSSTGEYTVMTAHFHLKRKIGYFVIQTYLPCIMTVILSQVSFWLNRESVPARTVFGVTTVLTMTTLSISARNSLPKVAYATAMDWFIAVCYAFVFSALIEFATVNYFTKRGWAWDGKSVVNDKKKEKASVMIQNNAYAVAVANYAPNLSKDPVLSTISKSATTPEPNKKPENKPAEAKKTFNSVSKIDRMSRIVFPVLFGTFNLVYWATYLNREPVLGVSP
# Sequence of α2β3γ2 GABAA subtype receptor (P28472 26-473 partner): as the sequence (P28472 26-473 partner) above
# Sequence of α2β3γ2 GABAA subtype receptor (P18507 40-475): as the sequence (P18507 40-475) above
# Sequence of α1β2γ2 GABAA subtype receptor (P14867 28-456): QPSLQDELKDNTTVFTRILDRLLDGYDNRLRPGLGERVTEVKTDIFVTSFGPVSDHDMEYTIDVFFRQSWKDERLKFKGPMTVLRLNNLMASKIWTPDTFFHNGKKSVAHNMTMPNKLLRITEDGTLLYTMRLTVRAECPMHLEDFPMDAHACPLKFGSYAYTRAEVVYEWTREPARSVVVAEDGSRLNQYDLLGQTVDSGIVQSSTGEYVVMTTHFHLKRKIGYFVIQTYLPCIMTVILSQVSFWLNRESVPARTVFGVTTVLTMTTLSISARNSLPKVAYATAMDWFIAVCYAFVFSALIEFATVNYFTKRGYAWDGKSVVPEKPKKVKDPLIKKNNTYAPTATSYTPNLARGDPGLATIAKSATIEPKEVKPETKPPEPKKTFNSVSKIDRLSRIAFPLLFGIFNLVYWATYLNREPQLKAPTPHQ
# Sequence of α1β2γ2 GABAA subtype receptor (P47870 25-512 partner limits assumed): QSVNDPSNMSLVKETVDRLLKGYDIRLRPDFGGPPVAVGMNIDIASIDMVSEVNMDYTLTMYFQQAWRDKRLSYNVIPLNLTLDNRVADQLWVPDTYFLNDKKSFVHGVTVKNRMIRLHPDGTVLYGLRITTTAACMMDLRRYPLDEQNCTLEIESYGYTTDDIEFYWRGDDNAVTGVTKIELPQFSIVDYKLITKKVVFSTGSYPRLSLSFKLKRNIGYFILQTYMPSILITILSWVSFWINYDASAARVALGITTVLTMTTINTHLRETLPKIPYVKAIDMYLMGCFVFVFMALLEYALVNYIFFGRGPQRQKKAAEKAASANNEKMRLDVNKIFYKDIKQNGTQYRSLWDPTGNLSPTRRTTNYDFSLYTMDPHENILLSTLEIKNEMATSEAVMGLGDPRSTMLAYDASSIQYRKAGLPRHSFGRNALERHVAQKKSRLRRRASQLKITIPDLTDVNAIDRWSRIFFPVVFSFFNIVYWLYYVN
# Sequence of α1β2γ2 GABAA subtype receptor (P18507 40-475): as the sequence (P18507 40-475) above
Structure (SMILES),"pEC50 [2, 8]","pEC50 [2, 9]","pEC50 [3, 11]","pEC50 [4, 13]","pEC50 [5, 14]","pEC50 [5, 15]",oocyte electrophysiology maximum potentiation α1β2γ2 ([4]; Xenopus laevis oocytes),oocyte electrophysiology maximum potentiation α2β3γ2 ([3]; Xenopus laevis oocytes),other results
CCOc1ccc(NC(=O)c2c[nH]c3c2C(=O)CCC3)cc1 [compound 3],6.73,7.44,7.92,7.48,6.88,7.64,–,–,"Porsolt swim test, minimal efficacious dose (rats [1]): 20 mg/kg; pEC50 [3, 10]: 6.97; Emax [3]: 52%; pEC50 [4, 12]: 6.97; Emax [4]: 26%; spontaneous locomotor activity, minimal efficacious dose (rats [6]): 4 mg/kg"
O=C(Nc1ccc(OCCO)cc1)c1c[nH]c2c1C(=O)CCC2 [compound 12],–,7.72,7.96,7.74,–,7.74,15%,–,–
O=C(Nc1ccccc1)c1c[nH]c2c1C(=O)CCCC2 [compound 13],–,7.64,7.28,8.52,–,7.44,–,–,–
O=c1c2c[nH]c3ccccc3n-2c(=O)n1-c1ccc(F)cc1 [compound 10],–,7.09,7.51,–,–,7.34,–,–,–
O=C(Nc1cccc(F)c1)c1c[nH]c2c(c1=O)CCC2 [compound 5],–,–,8.05,–,–,7.68,–,44%,–
O=c1[nH]c2c(n1-c1nc3ccc(F)c(F)c3o1)CCCCC2 [compound 7],6.76,–,8.40,8.30,–,8.05,18%,51%,oocyte electrophysiology maximum potentiation α3β3γ2 ([5]; Xenopus laevis oocytes): 83%
CNCc1ccc(NC(=O)c2c[nH]c3c2C(=O)CCCC3)cc1 [compound 4],6.73,–,7.72,7.32,6.88,7.29,23%,66%,"Porsolt swim test, minimal efficacious dose (rats [1]): 20 mg/kg; pEC50 [3, 10]: 6.97; pEC50 [4, 12]: 6.97"
CC1CC(=O)c2c(C(=O)Nc3ccc(F)cc3)c[nH]c2C1 (centres unmarked) [compound 8],–,7.40,7.41,7.85,–,7.43,17%,42%,"oocyte electrophysiology maximum potentiation α5β3γ2 ([2]; Xenopus laevis oocytes, human subunits, GABA at EC10, negative = inverse agonism): 16%; oocyte electrophysiology maximum potentiation α3β3γ2 ([5]; Xenopus laevis oocytes): 61%"
"CC(C)(C)OC(=O)c1ncn2c1C1CCCN1C(=O)c1c(Br)cccc1-2 (centres unmarked) [Ro16-6028, reference compound]",–,–,–,–,–,–,–,–,"Porsolt swim test, minimal efficacious dose (rats [1]): 1 mg/kg; spontaneous locomotor activity, minimal efficacious dose (rats [6]): 0.06 mg/kg"
"Cc1nnc2n1-c1ccc(Cl)cc1C(c1ccccc1)=NC2 [Alprazolam, reference compound]",–,8.00,7.92,7.43,–,7.16,–,–,–
"Cc1ccc(-c2nc3ccc(C)cn3c2CC(=O)N(C)C)cc1 [Zolpidem, reference compound]",–,–,–,–,–,–,–,–,"EC50 ([2]; oocyte electrophysiology EC50 α5β3γ2, Xenopus laevis oocytes, human subunits, μM): > 3 µM; Emax [2]: < 20%; Emax [3]: 350%; Emax [5]: 882%; step-down passive avoidance, minimal efficacious dose (rats [7]): 0.5 mg/kg"
O=c1c(-c2ccccc2F)nc2c[nH]c3ccccc3n1-2 [compound 2],–,7.44,7.92,7.48,–,7.64,18%,40%,–
c1cc2c(cc1-c1ncc3[nH]c4c(c3n1)CCCC4)OCO2 [compound 9],–,–,–,7.13,6.48,–,33%,–,"pEC50 [3, 10]: 6.74; Emax [3]: 53%; Emax [5]: 23%; step-down passive avoidance, minimal efficacious dose (rats [7]): 0.5 mg/kg"
CCOc1ccc(-n2c(=O)c3c[nH]c4ccccc4n-3c2=O)cc1 [compound 1],–,–,7.70,8.22,6.84,7.46,12%,71%,"Porsolt swim test, minimal efficacious dose (rats [1]): 20 mg/kg; pEC50 [3, 10]: 6.94; pEC50 [4, 12]: 6.80"
COc1ccc(F)c(-c2ncc3[nH]c4c(c3n2)CCCC4)c1 [compound 11],6.07,–,7.02,7.68,6.75,–,–,–,–
COc1ccc(NC(=O)c2c[nH]c3c2C(=O)CC(C)(C)C3)c(F)c1 [compound 6],6.97,–,7.55,7.36,–,7.48,–,72%,"Emax [2]: 42%; Emax [4]: 25%; oocyte electrophysiology maximum potentiation α3β3γ2 ([5]; Xenopus laevis oocytes): 95%; step-down passive avoidance, minimal efficacious dose (rats [7]): 4 mg/kg"
